PubChem BioAssay (NCI)
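These data come from cells grown in 96-well plates and exposed to compound for 48 hours at five concentrations. TGI: concentration producing complete growth inhibition.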

Experiments:
Assay in all cases: NCI-60 cell line screen, 48 h
[1] = tested on: 786-0 renal
[2] = tested on: A498 renal
[3] = tested on: CCRF-CEM leukemia
[4] = tested on: HCC-2998 colon
[5] = tested on: HCT-15 colon
[6] = tested on: HOP-62 NSCLC
[7] = tested on: HOP-92 NSCLC
[8] = tested on: MDA-MB-231 breast
[9] = tested on: NCI-H226 lung
[10] = tested on: NCI-H23 lung
[11] = tested on: NCI-H460 lung
[12] = tested on: OVCAR-8 ovarian
[13] = tested on: SF-268 CNS
[14] = tested on: SF-295 CNS
[15] = tested on: U251 CNS
[16] = tested on: UACC-257 melanoma

SMILES	TGI [1] [µM]	TGI [2] [µM]	TGI [3] [µM]	TGI [4] [µM]	TGI [5] [µM]	TGI [6] [µM]	TGI [7] [µM]	TGI [8] [µM]	TGI [9] [µM]	TGI [10] [µM]	TGI [11] [µM]	TGI [12] [µM]	TGI [13] [µM]	TGI [14] [µM]	TGI [15] [µM]	TGI [16] [µM]
COc1ccc(/C=C2\CCCC(CN(C)C)C2=O)cc1 (configuration not stated)	3.47	30.4	> 100	16.6	1.7	35.7	8.99	8.61	33.5	13.9	48.4	26.4	11	36.8	3.88	8.96
CO/N=C(\C)c1ccc(Nc2c3ccccc3nc3occc23)cc1	6.67	9.94	35.9	1.94	13.1	16.2	42	10.2	28.5	26.4	9.05	14.8	18.6	1.98	10.9	44.1
CC[C@@]1(N(C)C)C(=O)OCc2c1cc1n(c2=O)Cc2cc3ccccc3nc2-1	73.7	> 100	96.3	> 100	> 100	36.2	69.6	> 100	90.1	32	50.6	31.2	36.7	37.2	> 100	> 100
O=P1(C(O)/C=C/c2ccccc2)N(Cc2ccccc2)[C@H](c2ccccc2)[C@@H](c2ccccc2)N1Cc1ccccc1 (some centres not stated)	> 100	> 100	> 92.6	> 100	> 85.3	> 93.3	> 68.9	69.7	> 100	> 59.2	> 79.1	> 55.1	> 100	> 64.4	> 100	57.6
Cc1c(C#N)c2nnn(-c3ccc(Cl)cc3)c(=O)n2c1-c1ccccc1	7.59	3.92	> 100	0.201	11.9	3.73	25.7	0.987	2.02	19.8	3.71	11.2	14.8	1.03	3	33.6
C/C=C/[C@H]1O[C@@](O)([C@@H](C)[C@H](O)[C@H](C)[C@H]2OC(=O)/C(OC)=C/C(C)=C/[C@@H](C)[C@@H](O)[C@@H](CC)[C@@H](O)[C@H](C)C/C(C)=C/C=C/[C@@H]2OC)C[C@H](OC2CC(O)C(O)C(C)O2)[C@@H]1C (some centres not stated)	2.92	12.2	< 0.0075	11.8	8.8	2.7	3.69	13.9	11.7	17.5	4.81	12	25.6	10.4	11.4	< 0.0075
CC(C)(C)OC(=O)NCCCCC(N)C(N)=O (configuration not stated)	> 100	> 100	> 100	> 100	> 100	> 100	> 100	> 100	> 100	> 100	> 100	> 100	> 100	> 100	> 100	> 100
CCCCCCCC1C(C)c2c([nH]c3ccccc23)C2C(=O)N(c3ccc(OC)cc3)C(=O)C21 (configuration not stated)	3.28	5.47	> 6.6	> 10	> 10	> 7.78	> 10	> 7.84	> 8.21	6.99	3.62	6.02	> 10	> 6.64	3.97	7.65
Brc1ccc2[nH]cc(-c3csc(-c4ccccn4)n3)c2c1	20.3	12.4	> 100	31	> 100	> 45.5	> 95.8	> 75.4	34.8	> 100	22.4	> 100	> 59.7	> 26.4	36.4	> 85.2
COc1cc2c(/C=C3/C(=O)N(C)c4ccccc43)c(Cl)[nH]c2cc1C	16.5	> 50.6	> 26.8	0.317	6.34	3.56	> 50.1	3.68	> 100	1.55	1.36	3.77	3.09	3.44	1.57	97.6
CCOC(=O)c1ccc(Nc2cnc3cc(C(F)(F)F)ccc3n2)cc1	> 100	> 100	> 100	> 100	> 100	> 100	> 100	> 100	> 100	> 100	> 100	> 100	> 100	> 100	> 100	> 100
O=c1sc2c(s1)SSSSS2	> 50	> 50	42.1	> 50	> 50	> 50	> 50	> 50	> 50	> 50	> 50	> 50	> 50	> 50	> 50	> 50
C=CCN1CCC(OC(=O)C(O)(C#CC)C2CCCC2)CC1 (configuration not stated)	> 100	> 100	> 100	> 100	> 100	> 100	> 100	> 100	> 100	> 100	> 100	> 100	> 100	> 100	> 100	> 100
CC1=NCCN=C(C)C1N=Nc1ccc2nc(C)[nH]c2c1	33.5	18	16.8	41.1	> 100	61.1	22.5	31.2	44.1	44.2	52.1	85.1	46.4	31.5	> 100	28.6
O=c1cc(NCCCCCO)[nH]c(=O)[nH]1	> 100	> 100	> 100	> 100	> 100	> 100	> 100	> 100	> 100	> 100	> 100	> 100	> 100	> 100	> 100	> 100
O=C(O)c1ccccc1NC(c1ccccc1)c1ccc2cccnc2c1O (configuration not stated)	20.1	> 100	> 22.7	> 100	> 58.9	> 100	> 100	> 62.4	> 28.5	> 53	63.4	> 100	> 43.5	> 100	21.8	43.9
CC(=O)OC1=c2ccccc2=C(O)C2C1C=NN2C(C)=O (configuration not stated)	> 100	> 100	> 100	> 100	> 100	> 100	> 100	> 100	> 100	> 100	> 100	> 100	> 100	> 100	> 100	> 100
Cc1c2c(c(C)n1-c1ccccc1)C(=O)N(CCCCN1CCN(c3ccccc3)CC1)C2=O	19	69	26.1	27.1	54.8	36.1	46.3	24.1	40.3	48.5	47.4	31.4	> 100	53.7	84.9	22.2
CC1CC(C)C(O)C(C2CC(CC(=O)NC3CCCCC3)CC(=O)O2)C1 (configuration not stated)	> 100	> 100	> 100	> 100	> 100	> 100	> 100	> 100	> 100	> 100	> 100	> 100	> 100	> 100	> 100	> 100
COC(=O)CCc1cc(OC)c(O)c(C(Cc2ccc(OC)c(OC)c2)C(=O)OC)c1 (configuration not stated)	> 100	> 100	> 100	> 100	> 100	> 100	> 100	> 100	> 100	> 100	> 100	> 100	> 100	> 100	> 100	> 100
N#Cc1c(N2CCCC2)nsc1NCc1ccccc1	> 100	> 100	> 100	> 100	> 100	> 100	> 100	> 100	> 100	> 100	> 100	> 100	> 100	> 100	> 100	> 100
NNC(=O)CSc1nc2ccc(I)cc2c(=O)n1Cc1ccccc1	30.7	33.2	19	55.6	> 100	43.9	57	34.1	41.9	74.7	44.7	> 100	41.3	53.7	40.8	44
